Among the test systems are PC-3 prostate; TK-10 renal; OVCAR-4 ovarian; LOX IMVI melanoma; DU-145 prostate; SF-268 CNS; MCF7 breast; IGROV1 ovarian; HOP-92 NSCLC; SR leukemia.
What all share (experiment): NCI-60 cell line screen, 48 h

Each structure is given as a SMILES string.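 Cultured in 96-well plates, cells were exposed to test compound for 48 hours across five concentrations. Abbreviation: GI50, concentration required for 50% inhibition of growth. Definition used: TGI = concentration required for complete inhibition of growth.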

Regarding `CN[C@@H](C)C(=O)N[C@H]1CN(C(=O)CC(C)C)CC[C@H]2CC[C@@H](C(=O)NC(c3ccccc3)c3ccccc3)N2C1=O`, the GI50 is above 100 µM with PC-3 prostate; above 100 µM in the experiment on TK-10 renal; 0.664 µM with OVCAR-4 ovarian; above 100 µM with LOX IMVI melanoma; above 100 µM with DU-145 prostate; above 100 µM with SF-268 CNS. Moreover, the results for the GI50 with MCF7 breast, with IGROV1 ovarian and in the experiment with SR leukemia were above 100 µM, above 100 µM and above 78 µM, respectively. The TGI was above 100 µM in the experiment on PC-3 prostate; above 100 µM in the experiment on TK-10 renal; 8.42 µM with OVCAR-4 ovarian; above 100 µM in the experiment with LOX IMVI melanoma; above 100 µM with DU-145 prostate; above 100 µM with SF-268 CNS. In addition, the TGI in the experiment on MCF7 breast is above 100 µM; with IGROV1 ovarian, above 100 µM; with HOP-92 NSCLC, above 45.4 µM; with SR leukemia, above 100 µM.

As for `CCN(CC)CCCC(C)Nc1cc(-c2ccc(C(F)(F)F)cc2)c(C#N)c2nc3ccccc3n12` (stereo not given), the GI50 was 2.06 µM in the experiment on PC-3 prostate; 2.49 µM in the experiment with TK-10 renal; 3.12 µM with OVCAR-4 ovarian; 3.55 µM with DU-145 prostate; 1.9 µM with SF-268 CNS; 2.1 µM in the experiment on MCF7 breast. In addition, the GI50 was 1.66 µM in the experiment with HOP-92 NSCLC and 2.16 µM in the experiment on SR leukemia. Also, the TGI in the experiment on PC-3 prostate came out at 4.26 µM; with TK-10 renal it was 5.29 µM; in the experiment with OVCAR-4 ovarian, 10.1 µM; in the experiment on DU-145 prostate, 11.4 µM; in the experiment with SF-268 CNS it was 4.43 µM; with MCF7 breast, 4.88 µM. Further, the TGI with HOP-92 NSCLC was 3.43 µM; with SR leukemia, 5.91 µM.

For `COc1cc(-c2nc(NC(C)=O)sc2-c2ccnc(NCCNS(=O)(=O)c3ccccc3)n2)ccc1Cl`, the GI50 in the experiment with PC-3 prostate was 2.88 µM; with TK-10 renal, 6.33 µM; in the experiment with OVCAR-4 ovarian, 3.58 µM; with LOX IMVI melanoma it was 4.41 µM; with DU-145 prostate, 5.11 µM; with SF-268 CNS it was 4.25 µM. The GI50 with MCF7 breast is 2.4 µM; with IGROV1 ovarian, 6.75 µM; with HOP-92 NSCLC, 2.52 µM; in the experiment with SR leukemia, 2.3 µM. Besides, the TGI in the experiment with PC-3 prostate, in the experiment on TK-10 renal, with OVCAR-4 ovarian, with LOX IMVI melanoma, in the experiment on DU-145 prostate and with SF-268 CNS was above 100 µM in each case. The TGI is above 100 µM with MCF7 breast, above 100 µM in the experiment on IGROV1 ovarian, 72 µM in the experiment on HOP-92 NSCLC and above 100 µM with SR leukemia.

As to `Nc1nc(Cl)cc(NCCCCCNc2cc(Cl)nc(N)n2)n1`, the TGI with TK-10 renal, in the experiment on OVCAR-4 ovarian, in the experiment on LOX IMVI melanoma, in the experiment with SF-268 CNS, in the experiment on IGROV1 ovarian and with HOP-92 NSCLC was above 100 µM each time. For the same molecule, the TGI in the experiment on SR leukemia is above 100 µM.

As for `COC(=O)[C@H]1[C@@H](O)[C@@]2(O)c3c(OC)cc(O[C@@H]4O[C@@H]([C@H](O)CO)CO[C@H]4OC)cc3O[C@@]2(c2ccc(OC)cc2)[C@@H]1c1ccccc1`, the GI50 was 0.00405 µM in the experiment with PC-3 prostate; 0.0295 µM in the experiment on TK-10 renal; 0.00506 µM in the experiment with OVCAR-4 ovarian; 0.00263 µM with LOX IMVI melanoma; 0.00416 µM with DU-145 prostate; 0.00342 µM with SF-268 CNS. Also, the GI50 in the experiment with MCF7 breast was 0.00312 µM; in the experiment on IGROV1 ovarian, 0.00585 µM; with HOP-92 NSCLC, 0.00325 µM; in the experiment with SR leukemia, 0.00341 µM. Moreover, the TGI in the experiment with PC-3 prostate worked out at 0.0338 µM; in the experiment with TK-10 renal it was 0.108 µM; in the experiment on OVCAR-4 ovarian, 0.0484 µM; in the experiment with LOX IMVI melanoma, 0.00986 µM; in the experiment with DU-145 prostate, 0.046 µM; in the experiment with SF-268 CNS it was 0.0425 µM. The TGI came out at 0.033 µM with MCF7 breast, 0.0717 µM with IGROV1 ovarian, 0.0151 µM in the experiment with HOP-92 NSCLC and 0.147 µM with SR leukemia.

Turning to `COC(=O)NC1(NC(=O)OC)NC(=O)c2cc(OC)c(OC)cc2N1`, the TGI in the experiment on PC-3 prostate, in the experiment with TK-10 renal, with LOX IMVI melanoma, in the experiment on DU-145 prostate, in the experiment with SF-268 CNS and with MCF7 breast was above 100 µM in each case. The TGI in the experiment on IGROV1 ovarian and with SR leukemia was above 100 µM in each case.

Take `COc1cccc(NC(=O)C(C)(C)C)c1C=O`: the TGI with TK-10 renal, in the experiment on OVCAR-4 ovarian, with LOX IMVI melanoma, in the experiment on SF-268 CNS, in the experiment with IGROV1 ovarian and with HOP-92 NSCLC was above 100 µM each time. Moreover, the TGI in the experiment with SR leukemia was above 100 µM.

As to `CC1=C(C(=O)Nc2ccccc2)C(c2ccc([N+](=O)[O-])cc2)C(C(=O)Nc2ccccc2)=C(C)N1`, the TGI in the experiment on TK-10 renal was above 100 µM; in the experiment with LOX IMVI melanoma it was 30.5 µM; in the experiment on SF-268 CNS, 57.9 µM; in the experiment on IGROV1 ovarian, above 100 µM; with HOP-92 NSCLC, 60.9 µM; in the experiment with SR leukemia it was 45.7 µM.

As to `C=CCCCn1ccc2ccccc21`, the TGI with TK-10 renal, in the experiment on LOX IMVI melanoma, with SF-268 CNS, with IGROV1 ovarian, in the experiment with HOP-92 NSCLC and with SR leukemia was above 100 µM throughout.

As to `CCCCCCCCCCCCCCCCOCC(CN(C)CCN(C)C)OCCCCCCCCCCCCCCCC` (stereo not given), the TGI in the experiment on TK-10 renal, in the experiment on OVCAR-4 ovarian, in the experiment on LOX IMVI melanoma, with SF-268 CNS, with IGROV1 ovarian and in the experiment with HOP-92 NSCLC was above 100 µM each time. In the experiment on SR leukemia, the TGI was above 100 µM.

As to `O=C(O)C1=C(C(=O)Nc2ccccc2)C2C=CC1C2` (stereo not given), the TGI with TK-10 renal, in the experiment with OVCAR-4 ovarian, in the experiment with LOX IMVI melanoma, in the experiment with SF-268 CNS, in the experiment with IGROV1 ovarian and in the experiment with HOP-92 NSCLC was above 100 µM each time. In the experiment on SR leukemia, this molecule had a TGI above 100 µM.

Turning to `CC(=O)[O-].CC(=O)[O-].O=C(N/N=C/c1cc(Cl)cc(Cl)c1O)c1ccncc1.[Ni+2]`, the TGI in the experiment with TK-10 renal is above 100 µM; in the experiment with LOX IMVI melanoma, above 100 µM; in the experiment with SF-268 CNS, above 100 µM; with IGROV1 ovarian it was above 100 µM; in the experiment on HOP-92 NSCLC, 76.9 µM; in the experiment with SR leukemia, above 100 µM. The GI50 in the experiment with HOP-92 NSCLC was 17.1 µM.

These data come from PubChem BioAssay (NCI).
